# How the values were obtained:
# Type in all cases: functional
# [1] = Growth inhibition of human NCI60 cells
# A498 = assay: Growth inhibition of human A498 cells
# SK-MEL-5 = assay: Growth inhibition of human SK-MEL-5 cells
# SF-295 = assay: Growth inhibition of human SF295 cells
# P388 = assay: Cytotoxicity against mouse P388 cells; details: read-out: ED50 (the source's name)
# OVCAR-3 = assay: Growth inhibition of human OVCAR-3 cells
# KM-20L2 = assay: Growth inhibition of human KM20L2 cells
# NCI-H460 = assay: Growth inhibition of human NCI-H460 cells
Structure (SMILES),GI50 [1] [nM],GI50 (A498) [ng/mL],GI50 (SK-MEL-5) [ng/mL],GI50 (SF-295) [ng/mL],EC50 (P388) [ng/mL],GI50 (OVCAR-3) [ng/mL],GI50 (KM-20L2) [ng/mL],GI50 (NCI-H460) [ng/mL]
C[C@@H]1[C@]2(O[C@H]3C=C4[C@@H]5CC[C@H]6Cc7nc8c(nc7C[C@]6(C)[C@H]5C[C@@H](O)[C@]4(C)[C@]31O)C[C@@H]1CC[C@H]3C4=CC[C@@H]5[C@H](C)[C@@]6(OC[C@]45C(=O)C[C@@H]3[C@@]1(C)C8)OC(C)(C)C[C@H]6O)O[C@](C)(CO)C[C@H]2O [CEPHALOSTATIN 1],2.2,,,,,,,
CO[C@H]1c2nc3c(nc2C[C@@H]2CC[C@H]4C5=C[C@@H]6O[C@]7(O[C@](C)(CO)C[C@H]7O)[C@@H](C)[C@]6(O)[C@@]5(C)[C@H](O)C[C@@H]4[C@]21C)C[C@@]1(C)[C@@H](CC[C@H]2C4=CC[C@@H]5[C@H](C)[C@@]6(OC[C@]45C(=O)C[C@@H]21)OC(C)(C)C[C@H]6O)C3 [CEPHALOSTATIN 18],21.7,< 1,< 1,< 1,4.3,< 1,< 1,< 1
CO[C@H]1c2nc3c(nc2C[C@@H]2CC[C@H]4C5=CC[C@@H]6[C@H](C)[C@@]7(OC[C@]56C(=O)C[C@@H]4[C@]21C)OC(C)(C)C[C@H]7O)C[C@@]1(C)[C@@H](CC[C@H]2C4=C[C@@H]5O[C@]6(O[C@](C)(CO)C[C@H]6O)[C@@H](C)[C@]5(O)[C@@]4(C)[C@H](O)C[C@@H]21)C3 [CEPHALOSTATIN 19],16.6,< 1,< 1,< 1,7.4,< 1,< 1,< 1

# Source: ChEMBL document CHEMBL1150927, “Antineoplastic agents. 398. Isolation and structure elucidation of cephalostatins 18 and 19” (1998)
